These are literature values, as cited in patent US6737381B1, “Phytosanitary composition comprising at least a water soluble agent and a modified oil” (Institut National de la Recherche Agronomique, priority 1999, dated 2004).

For this data set the following is noted: hydrophilic herbicide.

As a reminder, the log P is a log measure of how a compound divides between an organic and an aqueous phase. With `O=C(O)CNCP(=O)(O)O` [glyphosate, N-(phosphonomethyl)glycine], the “log P” value is below −3.4.
